Activity calls are given as the source filed them. The rule behind the calls is not given here.
Columns and labels:
MDA-MB-231 [1] = assay: Induction of apoptosis in human MDA-MB-231 cells assessed as viable cells at 33.3 nM incubated for 48 hrs by Annexin V-PE staining based flow cytometric analysis (reference value: 92.59 to 92.71%); type: functional; settings: read-out: Activity
[2] = target: T1, Protein cereblon/Tyrosine-protein kinase receptor UFO (Homo sapiens, UniProt P30530+Q96SW2); assay: PROTAC activity at CRBN/AXL in human MDA-MB-231 cells assessed as induction of AXL degradation at 40 nM preincubated with MG-132 for 2 hrs followed by compound treatment and measured after 24 hrs by Western blot analysis; type: cell-based
Target sequence in this assay (P30530 26-894 limits assumed): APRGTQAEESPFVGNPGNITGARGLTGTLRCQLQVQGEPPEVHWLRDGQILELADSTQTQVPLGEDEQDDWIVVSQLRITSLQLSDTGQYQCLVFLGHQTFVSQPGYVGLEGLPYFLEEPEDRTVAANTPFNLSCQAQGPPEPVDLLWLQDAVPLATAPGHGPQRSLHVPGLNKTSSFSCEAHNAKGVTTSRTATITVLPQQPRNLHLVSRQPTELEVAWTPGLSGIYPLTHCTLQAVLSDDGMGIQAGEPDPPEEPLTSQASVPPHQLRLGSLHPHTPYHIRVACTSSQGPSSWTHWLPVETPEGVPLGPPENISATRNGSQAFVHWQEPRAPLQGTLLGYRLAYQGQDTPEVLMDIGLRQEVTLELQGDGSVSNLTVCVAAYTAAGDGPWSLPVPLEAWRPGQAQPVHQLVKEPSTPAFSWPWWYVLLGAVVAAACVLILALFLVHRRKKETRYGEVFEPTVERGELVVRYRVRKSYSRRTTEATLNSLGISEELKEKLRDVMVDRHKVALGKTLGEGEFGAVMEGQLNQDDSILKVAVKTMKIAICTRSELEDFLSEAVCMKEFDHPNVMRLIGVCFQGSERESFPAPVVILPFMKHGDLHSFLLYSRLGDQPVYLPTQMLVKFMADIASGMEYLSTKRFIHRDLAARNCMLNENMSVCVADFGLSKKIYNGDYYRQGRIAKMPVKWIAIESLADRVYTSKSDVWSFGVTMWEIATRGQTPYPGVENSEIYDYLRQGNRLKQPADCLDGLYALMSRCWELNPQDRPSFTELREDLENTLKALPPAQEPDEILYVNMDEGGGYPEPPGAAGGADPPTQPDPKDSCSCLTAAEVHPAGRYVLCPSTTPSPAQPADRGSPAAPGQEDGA
Target sequence in this assay (Q96SW2 whole entry partner): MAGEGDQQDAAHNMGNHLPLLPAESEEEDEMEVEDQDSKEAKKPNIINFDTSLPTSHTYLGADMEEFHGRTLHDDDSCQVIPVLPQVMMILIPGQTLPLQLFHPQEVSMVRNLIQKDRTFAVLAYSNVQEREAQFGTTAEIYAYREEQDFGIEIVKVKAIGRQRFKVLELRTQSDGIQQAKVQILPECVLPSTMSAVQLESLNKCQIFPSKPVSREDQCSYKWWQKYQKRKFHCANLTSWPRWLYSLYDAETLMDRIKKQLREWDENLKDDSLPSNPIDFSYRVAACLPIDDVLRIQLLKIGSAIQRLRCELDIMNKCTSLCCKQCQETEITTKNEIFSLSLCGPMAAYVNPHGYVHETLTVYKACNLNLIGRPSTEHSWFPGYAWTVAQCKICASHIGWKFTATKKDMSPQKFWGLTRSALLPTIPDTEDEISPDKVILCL

MDA-MB-231 [3] = assay: Induction of apoptosis in human MDA-MB-231 cells assessed as upregulation of cleaved PARP expression by Western blot analysis; type: functional, cell-based; settings: dose 11.1-300 nM
[4] = Toxicity in Balb/c nude mouse xenografted with human MDA-MB-231 cells assessed as mortality at 10 to 20 mg/kg, ip administered for 22 days and measured 24 hrs post last dose; type: organism-based; settings: in vivo, 552 h, dose 10-20 mg/kg, time 23 day
MDA-MB-231 [5] = assay: Induction of apoptosis in human MDA-MB-231 cells assessed as late apoptotic cells at 33.3 nM incubated for 48 hrs by Annexin V-PE staining based flow cytometric analysis (reference value: 0.32 to 0.82%); type: functional
[6] = target: Zinc finger protein Aiolos (Homo sapiens) (UniProt Q9UKT9); assay: Induction of IKZF3 degradation in human MDA-MB-231 cells at 10 uM incubated for 24 hrs by Western blot analysis; type: cell-based
Sequence of Zinc finger protein Aiolos (Homo sapiens) (Q9UKT9 whole entry, canonical isoform): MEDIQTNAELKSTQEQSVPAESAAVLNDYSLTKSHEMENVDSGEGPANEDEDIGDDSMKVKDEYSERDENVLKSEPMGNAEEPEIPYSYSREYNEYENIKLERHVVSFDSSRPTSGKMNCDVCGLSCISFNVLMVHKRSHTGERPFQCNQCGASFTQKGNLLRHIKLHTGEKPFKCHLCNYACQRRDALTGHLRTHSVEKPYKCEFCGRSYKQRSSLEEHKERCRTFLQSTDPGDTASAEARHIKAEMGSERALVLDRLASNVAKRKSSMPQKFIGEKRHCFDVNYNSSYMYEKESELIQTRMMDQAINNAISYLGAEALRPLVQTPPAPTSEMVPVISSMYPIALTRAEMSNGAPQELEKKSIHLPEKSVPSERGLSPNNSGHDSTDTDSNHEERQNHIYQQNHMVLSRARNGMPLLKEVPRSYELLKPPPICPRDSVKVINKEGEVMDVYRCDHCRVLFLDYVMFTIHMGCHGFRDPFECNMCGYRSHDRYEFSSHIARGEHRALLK

[7] = target: Casein kinase I isoform alpha (Homo sapiens) (UniProt P48729); assay: Induction of CK1alpha degradation in human MDA-MB-231 cells at 10 uM incubated for 24 hrs by Western blot analysis; type: cell-based
Sequence of Casein kinase I isoform alpha (Homo sapiens) (P48729 2-337 limits assumed): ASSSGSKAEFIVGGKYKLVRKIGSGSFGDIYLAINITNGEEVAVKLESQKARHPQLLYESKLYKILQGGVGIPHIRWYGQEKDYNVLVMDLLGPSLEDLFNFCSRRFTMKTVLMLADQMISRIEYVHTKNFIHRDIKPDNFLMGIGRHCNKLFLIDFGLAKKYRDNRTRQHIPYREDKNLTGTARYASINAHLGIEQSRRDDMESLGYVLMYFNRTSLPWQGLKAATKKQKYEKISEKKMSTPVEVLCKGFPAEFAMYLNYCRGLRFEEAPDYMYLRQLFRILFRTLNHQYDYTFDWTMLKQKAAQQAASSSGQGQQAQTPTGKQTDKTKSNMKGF

MDA-MB-231 [8] = assay: Induction of apoptosis in human MDA-MB-231 cells assessed as necrotic cells at 300 nM incubated for 48 hrs by Annexin V-PE staining based flow cytometric analysis (reference value: 2.64 to 3.23%); type: functional
MDA-MB-231 [9] = assay: Induction of apoptosis in human MDA-MB-231 cells assessed as viable cells at 100 nM incubated for 48 hrs by Annexin V-PE staining based flow cytometric analysis (reference value: 92.59 to 92.71%); type: functional; settings: read-out: Activity
MDA-MB-231 [10] = assay: Induction of cell cycle arrest in human MDA-MB-231 cells assessed as S phase cells at 100 nM incubated for 24 hrs by PI staining based flow cytometric analysis (reference value: 9.64 to 10.79%); type: functional
MDA-MB-231 [11] = assay: Induction of cell cycle arrest in human MDA-MB-231 cells assessed as G0/G1 phase cells at 33.3 nM incubated for 24 hrs by PI staining based flow cytometric analysis (reference value: 63.32 to 64.94%); type: functional
[12] = target: T1, Protein cereblon/Tyrosine-protein kinase receptor UFO; assay: PROTAC activity at CRBN/AXL in human MDA-MB-231 cells assessed as induction of AXL degradation incubated upto 20 hrs in the presence of cycloheximide by Western blot analysis; type: cell-based
Target sequence in this assay (P30530 26-894 limits assumed): as the sequence (P30530 26-894 limits assumed) above
Target sequence in this assay (Q96SW2 whole entry partner): as the sequence (Q96SW2 whole entry partner) above

[13] = Antitumor activity against patient-derived breast cancer organoid assessed as reduction in cell viability incubated for 120 hrs by CellTiter-Glo 3D assay; type: functional, tissue-based; settings: Homo sapiens
MDA-MB-231 [14] = assay: Induction of apoptosis in human MDA-MB-231 cells assessed as necrotic cells at 100 nM incubated for 48 hrs by Annexin V-PE staining based flow cytometric analysis (reference value: 2.64 to 3.23%); type: functional
[15] = target: T1, Protein cereblon/Tyrosine-protein kinase receptor UFO; assay: PROTAC activity at CRBN/AXL in human MDA-MB-231 cells expressing AXL assessed as induction of AXL degradation at 0.016 to 10 nM incubated for 24 hrs by Western blot analysis; type: cell-based; settings: dose 0.016-10 nM
Target sequence in this assay (P30530 26-894 limits assumed): as the sequence (P30530 26-894 limits assumed) above
Target sequence in this assay (Q96SW2 whole entry partner): as the sequence (Q96SW2 whole entry partner) above

Mus musculus = assay: In vivo PROTAC activity at CRBN/AXL in human MDA-MB-231 cells xenografted Balb/c mouse assessed as degradation of AXL in tumor at 10 to 20 mg/kg, ip administered for 22 days and measured 24 hrs post last dose by Western blot analysis; type: functional, organism-based; settings: dose 10-20 mg/kg, time 23.0 day
MDA-MB-231 [16] = assay: Induction of cell cycle arrest in human MDA-MB-231 cells assessed as decrease in cyclin B1 level at 11.1 to 300 nM by Western blot analysis; type: functional, cell-based; settings: dose 11.1-300 nM
[17] = target: T1, Protein cereblon/Tyrosine-protein kinase receptor UFO; assay: PROTAC activity at CRBN/AXL in human MDA-MB-231 cells assessed as induction of AXL degradation at 40 nM by Western blot analysis; type: cell-based; settings: time <= 72.0 hrs, TDE = time-dependent effect
Target sequence in this assay (P30530 26-894 limits assumed): as the sequence (P30530 26-894 limits assumed) above
Target sequence in this assay (Q96SW2 whole entry partner): as the sequence (Q96SW2 whole entry partner) above

[18] = target: T1, Protein cereblon/Tyrosine-protein kinase receptor UFO; assay: PROTAC activity at CRBN/AXL in human MDA-MB-231 cells assessed as induction of AXL degradation at 10 nM preincubated with more than 5 uM of N-(4-((6,7-dimethoxyquinazolin-4-yl)oxy)-3-fluorophenyl)-6-ethyl-1,2-dimethyl-4-oxo-1,4-dihydroquinoline-3-carboxamide for 6 hrs followed by compound treatment and measured after 24 hrs by Western blot analysis; type: cell-based
Target sequence in this assay (P30530 26-894 limits assumed): as the sequence (P30530 26-894 limits assumed) above
Target sequence in this assay (Q96SW2 whole entry partner): as the sequence (Q96SW2 whole entry partner) above

MDA-MB-231 [19] = assay: Induction of cell cycle arrest in human MDA-MB-231 cells assessed as G0/G1 phase cells at 300 nM incubated for 24 hrs by PI staining based flow cytometric analysis (reference value: 63.32 to 64.94%); type: functional
[20] = target: T1, Protein cereblon/Tyrosine-protein kinase receptor UFO; assay: PROTAC activity at CRBN/AXL in human MDA-MB-231 cells assessed as induction of AXL degradation by measuring half-life of AXL incubated upto 20 hrs in the presence of cycloheximide by Western blot analysis; type: cell-based
Target sequence in this assay (P30530 26-894 limits assumed): as the sequence (P30530 26-894 limits assumed) above
Target sequence in this assay (Q96SW2 whole entry partner): as the sequence (Q96SW2 whole entry partner) above

MDA-MB-231 [21] = assay: Induction of apoptosis in human MDA-MB-231 cells assessed as late apoptotic cells at 100 nM incubated for 48 hrs by Annexin V-PE staining based flow cytometric analysis (reference value: 0.32 to 0.82%); type: functional
[22] = target: Eukaryotic peptide chain release factor GTP-binding subunit ERF3A (Homo sapiens) (UniProt P15170); assay: Induction of GSPT1 degradation in human MDA-MB-231 cells at 0.016 to 10 nM incubated for 24 hrs by Western blot analysis; type: cell-based; settings: dose 0.016-10 nM
Sequence of Eukaryotic peptide chain release factor GTP-binding subunit ERF3A (Homo sapiens) (P15170 whole entry): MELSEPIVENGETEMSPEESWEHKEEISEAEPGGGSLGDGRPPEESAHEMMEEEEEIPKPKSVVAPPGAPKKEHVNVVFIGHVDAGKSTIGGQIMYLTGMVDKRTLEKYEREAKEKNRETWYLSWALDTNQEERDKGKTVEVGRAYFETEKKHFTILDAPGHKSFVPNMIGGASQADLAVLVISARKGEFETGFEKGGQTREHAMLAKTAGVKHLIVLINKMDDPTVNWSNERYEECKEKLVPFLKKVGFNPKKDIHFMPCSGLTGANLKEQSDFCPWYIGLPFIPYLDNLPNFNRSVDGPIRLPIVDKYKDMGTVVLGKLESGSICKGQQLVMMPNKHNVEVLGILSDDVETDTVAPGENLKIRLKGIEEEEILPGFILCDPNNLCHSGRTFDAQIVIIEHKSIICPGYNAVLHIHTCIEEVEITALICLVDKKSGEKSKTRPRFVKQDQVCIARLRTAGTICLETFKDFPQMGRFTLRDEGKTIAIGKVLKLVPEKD

MDA-MB-231 [23] = assay: Induction of cell cycle arrest in human MDA-MB-231 cells assessed as G0/G1 phase cells at 100 nM incubated for 24 hrs by PI staining based flow cytometric analysis (reference value: 63.32 to 64.94%); type: functional
MDA-MB-231 [24] = assay: Induction of apoptosis in human MDA-MB-231 cells assessed as early apoptotic cells at 100 nM incubated for 48 hrs by Annexin V-PE staining based flow cytometric analysis (reference value: 3.95 to 3.74%); type: functional
[25] = target: T1, Protein cereblon/Tyrosine-protein kinase receptor UFO; assay: PROTAC activity at CRBN/AXL in human MDA-MB-231 cells assessed as induction of AXL degradation incubated for 24 hrs by immunoblot analysis; type: cell-based
[26] = target: T1, Protein cereblon/Tyrosine-protein kinase receptor UFO; assay: PROTAC activity at CRBN/AXL in human MDA-MB-231 cells assessed as induction of AXL degradation by measuring maximal efficacy at 0.08 uM incubated for 24 hrs by Western blot analysis relative to control; type: cell-based
Homo sapiens = organism: Homo sapiens; assay: Antitumor activity against patient-derived breast cancer organoid assessed as decrease in structure density at 5 uM incubated for 120 hrs by bright-field imaging microscopic analysis; type: functional, tissue-based
MDA-MB-231 [27] = assay: Induction of apoptosis in human MDA-MB-231 cells assessed as downregulation of caspase-9 expression by Western blot analysis; type: functional, cell-based; settings: dose 11.1-300 nM
MDA-MB-453 = assay: Antiproliferative activity against human MDA-MB-453 cells assessed as inhibition of cell growth incubated for 72 hrs by CCK8 assay; type: functional, cell-based; settings: MDA-MB-453, 72 h

For `CCc1ccc2c(c1)c(=O)c(C(=O)Nc1ccc(Oc3ncnc4cc(OCCCCCC(=O)Nc5ccc6c(c5)CN(C5CCC(=O)NC5=O)C6=O)c(OC)cc34)c(F)c1)c(C)n2C` (stereo unspecified), the viability at 0.0333 µM (MDA-MB-231 [1]) was 91.5%, the Activity [2] was “inactive” and the Activity (MDA-MB-231 [3]) was “Dose-Dependent Effect”. For the same compound, the Activity [4] was “Non-Toxic”, the Activity (MDA-MB-231 [5]) was 0.56% and the Activity [6] was “inactive”. The Activity [7] was “inactive”, the Activity (MDA-MB-231 [8]) was 4.59% and the viability at 0.1 µM (MDA-MB-231 [9]) was 83.4%. The Activity (MDA-MB-231 [10]) was 15.78%, the Activity (MDA-MB-231 [11]) was 63.32% and the Activity [12] was “Active”. For the same compound, the IC50 [13] was 20 nM, the Activity (MDA-MB-231 [14]) was 1.17% and the Activity [15] was “Active”. For the same compound, the Activity (Mus musculus) was “Active”, the Activity (MDA-MB-231 [16]) was “Active” and the Activity [17] was “Tde”. For the same compound, the Activity [18] was “inactive”, the Activity (MDA-MB-231 [19]) was 47.51% and the T1/2 [20] was 8 h. For the same compound, the Activity (MDA-MB-231 [21]) was 0.88%, the Activity [22] was “Active” and the Activity (MDA-MB-231 [23]) was 46.81%. The Activity (MDA-MB-231 [24]) was 14.51%, the Activity [25] was “Dose-Dependent Effect” and the EC50 [25] was 5 nM. The Emax [26] was 80.5%, the Activity (Homo sapiens) was “Active” and the Activity (MDA-MB-231 [27]) was “Dose-Dependent Effect”. The IC50 (MDA-MB-453) was greater than 5000 nM.

From ChEMBL document CHEMBL5316328, “Discovery of AXL Degraders with Improved Potencies in Triple-Negative Breast Cancer (TNBC) Cells” (J Med Chem, 2023)
